Reference: PMC7998731, “Pharmacokinetic Characterization of Supinoxin and Its Physiologically Based Pharmacokinetic Modeling in Rats” (Pharmaceutics, 2021)
Read-outs that look alike come from different tables or passages of the source.

Legend:
[1] = Tissue distribution (tissue-to-plasma partition) in rats; assay type: in vivo; conditions: male, rat; for Vd: oral; for AUC(0-t): mean, read-out: AUC0–24h
[2] = Unbound fraction in microsomal incubation mixture (Rapid Equilibrium Dialysis); assay type: in vitro ADME; conditions: rat, liver microsomes 0.5 mg protein/mL
Procedure: To determine the unbound fraction of supinoxin in the plasma, a protein binding study was carried out using the Rapid Equilibrium Dialysis (RED) method. Following the manufacturer’s protocol (Thermo Fisher Scientific, San Jose, CA, USA), supinoxin was added to a plasma aliquot to produce a final concentration of 1 µg/mL. A plasma aliquot containing supinoxin (200 µL) and buffer (350 µL) was added to the sample chamber and the buffer chamber, respectively. When necessary, supinoxin was added to the microsomal incubation mixture (0.5 mg of protein per mL in potassium phosphate buffer) to produce final concentrations of 1 µM. The plate was covered and agitated on an orbital shaker at approximately 250 rpm at 37 °C. Aliquots (25 µL) of the plasma and buffer were collected at 4, 8, 18, and 24 h, and the samples were subjected to LC–MS/MS analysis. The fraction of supinoxin bound to plasma protein was estimated as follows:Percent bound (%) = [1 − (concentration in buffer/concentration in plasma)] × 100%(5)

[3] = cited from earlier work; for Plasma concentration, Mean: fasted male SD rats, intravenous 1 mg/kg, ref 15 (Table 1 footnote)
[4] = cited from earlier work; for Plasma concentration, Mean: fasted male SD rats, oral 1 mg/kg, ref 15 (Table 2 footnote)
[5] = system: advanced triple-negative breast cancer; set-up: method as in doi:10.1200/JCO.2018.36.15_suppl.1097; conditions: cited from earlier work
[6] = rats, intravenous, 1 mg/kg, Jeong, J.-W. et al., 2017
[7] = rats, oral, 1 mg/kg, Jeong, J.-W. et al., 2017

Vd ([1]; Sprague Dawley, plasma, 5 mg/kg, estimated Kp and tissue volumes from literature, read-out: steady state volume of distribution calculated from Kp and tissue volumes): 1.92 L
AUC(0-t) ([1]; Sprague Dawley, Adipose tissue, rats, oral administration (5 mg/kg)): 111000 ng·h/mL
AUC(0-t) ([1]; Sprague Dawley, Spleen, rats, oral administration (5 mg/kg)): 3310 ng·h/mL
AUC(0-t) ([1]; Sprague-Dawley, kidney, Kidneys, rats, oral administration (5 mg/kg)): 11100 ng·h/mL
Kp ([1]; Sprague-Dawley, kidney, Kidneys, rats, oral administration (5 mg/kg), read-out: Kp (tissue to plasma AUC ratio)): 2.18
AUC(0-t) ([1]; Sprague-Dawley, lung, Lungs, rats, oral administration (5 mg/kg)): 5520 ng·h/mL
Kp ([1]; Sprague-Dawley, lung, Lungs, rats, oral administration (5 mg/kg), read-out: Kp (tissue to plasma AUC ratio)): 1.08
AUC(0-t) ([1]; Sprague-Dawley, muscle, Muscles, rats, oral administration (5 mg/kg)): 6130 ng·h/mL
Kp ([1]; Sprague-Dawley, muscle, Muscles, rats, oral administration (5 mg/kg), read-out: Kp (tissue to plasma AUC ratio)): 1.2
Vd ([1]; Sprague-Dawley, 5 mg/kg, sum of Kp × Volume over plasma and tissues, read-out: Vd): 1.92 L/kg
Kp ([1]; Sprague-Dawley, several tissues (range over tissues), intravenous, 5 mg/kg, range over tissues, PBPK input parameter, Determined, read-out: Tissue: Plasma partition coefficients): 0.649 to 21.7
AUC(0-t) ([1]; Sprague-Dawley, Adipose tissue, rats, oral administration (5 mg/kg)): 111000 ng·h/mL
Kp ([1]; Sprague-Dawley, Adipose tissue, rats, oral administration (5 mg/kg), read-out: Kp (tissue to plasma AUC ratio)): 21.7
AUC(0-t) ([1]; Sprague-Dawley, Brain, rats, oral administration (5 mg/kg)): 4350 ng·h/mL
Kp ([1]; Sprague-Dawley, Brain, rats, oral administration (5 mg/kg), read-out: Kp (tissue to plasma AUC ratio)): 0.85
AUC(0-t) ([1]; Sprague-Dawley, Gut, rats, oral administration (5 mg/kg)): 25300 ng·h/mL
Kp ([1]; Sprague-Dawley, Gut, rats, oral administration (5 mg/kg), read-out: Kp (tissue to plasma AUC ratio)): 4.96
AUC(0-t) ([1]; Sprague-Dawley, Heart, rats, oral administration (5 mg/kg)): 3550 ng·h/mL
Kp ([1]; Sprague-Dawley, Heart, rats, oral administration (5 mg/kg), read-out: Kp (tissue to plasma AUC ratio)): 0.7
AUC(0-t) ([1]; Sprague-Dawley, Liver, rats, oral administration (5 mg/kg)): 24300 ng·h/mL
Kp ([1]; Sprague-Dawley, Liver, rats, oral administration (5 mg/kg), read-out: Kp (tissue to plasma AUC ratio)): 4.76
AUC(0-t) ([1]; Sprague-Dawley, Plasma, rats, oral administration (5 mg/kg)): 5110 ng·h/mL
Kp ([1]; Sprague-Dawley, Plasma, rats, oral administration (5 mg/kg), read-out: Kp (tissue to plasma AUC ratio)): 1
AUC(0-t) ([1]; Sprague-Dawley, Spleen, rats, oral administration (5 mg/kg)): 3310 ng·h/mL
Kp ([1]; Sprague-Dawley, Spleen, rats, oral administration (5 mg/kg), read-out: Kp (tissue to plasma AUC ratio)): 0.65
AUC(0-t) ([1]; Sprague-Dawley, Testes, rats, oral administration (5 mg/kg)): 5370 ng·h/mL
Kp ([1]; Sprague-Dawley, Testes, rats, oral administration (5 mg/kg), read-out: Kp (tissue to plasma AUC ratio)): 1.05
fraction unbound at 18 h, 1 µM ([2]; liver microsomal incubation mixture, 18 h incubation): 0.623 ± 0.016
fraction unbound at 4 h, 1 µM ([2]; 4 h incubation): 0.518 ± 0.025
fraction unbound at 8 h, 1 µM ([2]; 8 h incubation): 0.57 ± 0.017
fraction unbound at 24 h, 1 µM ([2]; 24 h incubation): 0.615 ± 0.046
Compound: COc1cc(OC)cc(N2CCN(C(=O)Nc3nc4cc(F)ccc4nc3OC)CC2)c1 [supinoxin, 1-(3,5-Dimethoxyphenyl)-4-[(6-Fluoro-2-Methoxyquinoxalin-3-yl) Aminocarbonyl] Piperazine]
Plasma concentration, Mean ([3]; 0.083 h): 0.8602 µg/mL
Plasma concentration, Mean ([3]; 0.25 h): 0.6822 µg/mL
Plasma concentration, Mean ([3]; 0.5 h): 0.5016 µg/mL
Plasma concentration, Mean ([3]; 1 h): 0.2924 µg/mL
Plasma concentration, Mean ([3]; 3 h): 0.1942 µg/mL
Plasma concentration, Mean ([3]; 7 h): 0.0523 µg/mL
Plasma concentration, Mean ([3]; 10 h): 0.0208 µg/mL
Plasma concentration, Mean ([3]; 24 h, BQL treated as 0): 0.0005 µg/mL
AUCinf [3, 6]: 1.78 ± 0.30 µg·h/mL
AUClast [3, 6]: 1.75 ± 0.32 µg·h/mL
T1/2 [3, 6]: 2.64 ± 0.39 h
Vss [3, 6]: 2040 ± 316 mL/kg
Plasma concentration, Mean ([4]; 0.25 h): 0.2119 µg/mL
Plasma concentration, Mean ([4]; 0.5 h): 0.2336 µg/mL
Plasma concentration, Mean ([4]; 1 h): 0.2312 µg/mL
Plasma concentration, Mean ([4]; 3 h): 0.1222 µg/mL
Plasma concentration, Mean ([4]; 7 h): 0.0349 µg/mL
Plasma concentration, Mean ([4]; 10 h): 0.0137 µg/mL
Plasma concentration, Mean ([4]; 24 h, BQL treated as 0): 0.0003 µg/mL
AUCinf [4, 7]: 1.01 ± 0.42 µg·h/mL
AUClast [4, 7]: 0.984 ± 0.407 µg·h/mL
Cmax [4, 7]: 0.250 ± 0.093 µg/mL
F (absolute oral bioavailability) [4, 7]: 56.9 ± 23.7%
MRT [4, 7]: 3.15 ± 1.26 h
T1/2 [4, 7]: 2.11 ± 0.91 h
Tmax [4, 7]: 39 ± 20.2 min
patients with stable disease ([5]; after two cycles of therapy): five of the 11 patients
safety and tolerability of the suggested dose [5]: safe and well tolerated
tumor reduction ([5]; one subject, after two cycles of therapy): 18.2%
